Data taken from PubChem BioAssay AID256 (DTP/NCI, 2004).
Toxic doses and inconclusive results are not listed. Rule for the calls: active = survival T/C of 150% or more; inactive = T/C below 125% in these data.

System: CD2F1 mice, L1210 leukemia ip, survival T/C
Test: NCI In Vivo Anticancer Drug Screen. Data for tumor model L1210 Leukemia (intraperitoneal) in CD2F1 (CDF1) mice
Conditions: higher = longer survival
How it was run: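 Activity against a transplanted murine tumor was judged by comparing the compound group with a vehicle group. The outcome in the treated animals was divided by that in the controls.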

[1] = endpoint: mean survival time, dose: 100.0 mg/kg/injection, schedule: Q04DX003 (ip), vehicle: saline with Tween-80
[2] = endpoint: mean survival time, dose: 200.0 mg/kg/injection, schedule: Q04DX003 (ip), vehicle: saline with Tween-80

Measured: T/C

CCCC1(CCC)NC(=O)NC1=O
inactive: endpoint: mean survival time, dose: 100.0 mg/kg/injection, schedule: Q04DX003 (ip), vehicle: other 102 % of control | endpoint: mean survival time, dose: 200.0 mg/kg/injection, schedule: Q04DX003 (ip), vehicle: other 102 % of control

NC(=S)NCc1ccccc1
inactive: endpoint: mean survival time, dose: 100.0 mg/kg/injection, schedule: Q01DX009 (ip), vehicle: saline with Tween-80 89 % of control | [1] 105 % of control | endpoint: mean survival time, dose: 200.0 mg/kg/injection, schedule: Q01DX009 (ip), vehicle: saline with Tween-80 91 % of control | [2] 101 % of control | endpoint: mean survival time, dose: 400.0 mg/kg/injection, schedule: Q04DX003 (ip), vehicle: saline with Tween-80 112 % of control

S=c1nc(-c2ccncc2)[nH][nH]1
inactive: endpoint: mean survival time, dose: 25.0 mg/kg/injection, schedule: Q01DX009 (ip), vehicle: saline sonified 107 % of control | endpoint: mean survival time, dose: 50.0 mg/kg/injection, schedule: Q01DX009 (ip), vehicle: saline sonified 98 % of control | endpoint: mean survival time, dose: 100.0 mg/kg/injection, schedule: Q01DX009 (ip), vehicle: saline sonified 107 % of control | [1] 100 % of control

CCCN(CCC)c1ccc(C#N)cc1
inactive: endpoint: mean survival time, dose: 100.0 mg/kg/injection, schedule: Q04DX003 (ip), vehicle: Klucel (hydroxypropylcellulose) (HPC) 91 % of control | endpoint: mean survival time, dose: 200.0 mg/kg/injection, schedule: Q04DX003 (ip), vehicle: Klucel (hydroxypropylcellulose) (HPC) 92 % of control | endpoint: mean survival time, dose: 400.0 mg/kg/injection, schedule: Q04DX003 (ip), vehicle: Klucel (hydroxypropylcellulose) (HPC) 95 % of control

Nc1nc(NC(c2ccc(Cl)cc2)c2ccc(Cl)cc2)c2[nH]cnc2n1
inactive: endpoint: mean survival time, dose: 75.0 mg/kg/injection, schedule: Q01DX001 (ip), vehicle: other 103 % of control | endpoint: mean survival time, dose: 150.0 mg/kg/injection, schedule: Q01DX001 (ip), vehicle: other 101 % of control

OCC(O)COCC#Cc1ccccc1 (centres undefined)
inactive: endpoint: mean survival time, dose: 25.0 mg/kg/injection, schedule: Q01DX009 (ip), vehicle: water 97 % of control | endpoint: mean survival time, dose: 50.0 mg/kg/injection, schedule: Q01DX009 (ip), vehicle: water 92 % of control | endpoint: mean survival time, dose: 100.0 mg/kg/injection, schedule: Q01DX009 (ip), vehicle: water 101 % of control | endpoint: mean survival time, dose: 200.0 mg/kg/injection, schedule: Q01DX009 (ip), vehicle: water 101 % of control

Nc1ccc(-c2c(N)ncc3ccccc23)cc1
inactive: endpoint: mean survival time, dose: 50.0 mg/kg/injection, schedule: Q04DX003 (ip), vehicle: DMSO 101 % of control

FC(F)(F)C(Cl)(c1ccc(Cl)cc1)c1ccc(Cl)cc1
inactive: endpoint: mean survival time, dose: 50.0 mg/kg/injection, schedule: Q04DX003 (sc), vehicle: olive oil, sesame oil, peanut oil 101 % of control | endpoint: mean survival time, dose: 100.0 mg/kg/injection, schedule: Q04DX003 (sc), vehicle: olive oil, sesame oil, peanut oil 108 % of control | endpoint: mean survival time, dose: 200.0 mg/kg/injection, schedule: Q04DX003 (sc), vehicle: olive oil, sesame oil, peanut oil 97 % of control | endpoint: mean survival time, dose: 400.0 mg/kg/injection, schedule: Q04DX003 (sc), vehicle: olive oil, sesame oil, peanut oil 101 % of control

CCOC(=O)N/N=C/c1cc(Cl)cc(Cl)c1O
inactive: endpoint: mean survival time, dose: 50.0 mg/kg/injection, schedule: Q01DX001 (ip), vehicle: saline with Tween-80 111 % of control | endpoint: mean survival time, dose: 100.0 mg/kg/injection, schedule: Q01DX001 (ip), vehicle: saline with Tween-80 98 % of control | endpoint: mean survival time, dose: 200.0 mg/kg/injection, schedule: Q01DX001 (ip), vehicle: saline with Tween-80 90 % of control

CN(C)CCCNCCCCNCCCN(C)C
inactive: endpoint: mean survival time, dose: 100.0 mg/kg/injection, schedule: Q01DX009 (ip), vehicle: saline 102 % of control | endpoint: mean survival time, dose: 100.0 mg/kg/injection, schedule: Q04DX003 (ip), vehicle: saline 96 % of control | endpoint: mean survival time, dose: 200.0 mg/kg/injection, schedule: Q01DX009 (ip), vehicle: saline 102 % of control | endpoint: mean survival time, dose: 200.0 mg/kg/injection, schedule: Q04DX003 (ip), vehicle: saline 101 % of control | endpoint: mean survival time, dose: 400.0 mg/kg/injection, schedule: Q04DX003 (ip), vehicle: saline 106 % of control

CCCCCCCCCCCCNC(=O)c1ccc[n+](C)c1
inactive: endpoint: mean survival time, dose: 12.5 mg/kg/injection, schedule: Q01DX009 (ip), vehicle: saline 88 % of control | endpoint: mean survival time, dose: 12.5 mg/kg/injection, schedule: Q04DX003 (ip), vehicle: saline 93 % of control | endpoint: mean survival time, dose: 25.0 mg/kg/injection, schedule: Q04DX003 (ip), vehicle: saline 97 % of control | endpoint: mean survival time, dose: 50.0 mg/kg/injection, schedule: Q04DX003 (ip), vehicle: saline 101 % of control

O=C(/C=C/c1ccccc1)Oc1cc(O)cc(O)c1
inactive: endpoint: mean survival time, dose: 12.5 mg/kg/injection, schedule: Q04DX002 (ip), vehicle: saline with Tween-80 102 % of control | endpoint: mean survival time, dose: 25.0 mg/kg/injection, schedule: Q04DX002 (ip), vehicle: saline with Tween-80 105 % of control | endpoint: mean survival time, dose: 50.0 mg/kg/injection, schedule: Q04DX002 (ip), vehicle: saline with Tween-80 105 % of control

COc1ccc(CNCCCC2C3CCC(C3)C2CN)cc1 (centres undefined)
inactive: [1] 95 % of control | [2] 95 % of control

CSc1ncnc2c(C3OC(COC(C)=O)C(OC(C)=O)C3OC(C)=O)[nH]nc12 (centres undefined)
inactive: endpoint: median survival time, dose: 8.0 mg/kg/injection, schedule: Q01DX005 (ip), vehicle: distilled water + Tween-80 94 % of control | endpoint: median survival time, dose: 16.0 mg/kg/injection, schedule: Q01DX005 (ip), vehicle: distilled water + Tween-80 103 % of control | endpoint: median survival time, dose: 32.0 mg/kg/injection, schedule: Q01DX005 (ip), vehicle: distilled water + Tween-80 96 % of control | endpoint: median survival time, dose: 64.0 mg/kg/injection, schedule: Q01DX005 (ip), vehicle: distilled water + Tween-80 103 % of control | endpoint: median survival time, dose: 128.0 mg/kg/injection, schedule: Q01DX005 (ip), vehicle: distilled water + Tween-80 106 % of control

C=CC(=O)O
inactive: endpoint: mean survival time, dose: 1.56 mg/kg/injection, schedule: Q04DX003 (ip), vehicle: saline with Tween-80 107 % of control | endpoint: mean survival time, dose: 3.12 mg/kg/injection, schedule: Q04DX003 (ip), vehicle: saline with Tween-80 109 % of control | endpoint: mean survival time, dose: 6.25 mg/kg/injection, schedule: Q01DX009 (ip), vehicle: saline with Tween-80 97 % of control | endpoint: mean survival time, dose: 6.25 mg/kg/injection, schedule: Q04DX003 (ip), vehicle: Klucel (hydroxypropylcellulose) (HPC) 90 % of control | endpoint: mean survival time, dose: 6.25 mg/kg/injection, schedule: Q04DX003 (ip), vehicle: saline with Tween-80 101 % of control | endpoint: mean survival time, dose: 9.2 mg/kg/injection, schedule: Q01DX009 (ip), vehicle: acetone 89 % of control | endpoint: mean survival time, dose: 12.5 mg/kg/injection, schedule: Q01DX009 (ip), vehicle: saline with Tween-80 92 % of control | endpoint: mean survival time, dose: 12.5 mg/kg/injection, schedule: Q04DX003 (ip), vehicle: Klucel (hydroxypropylcellulose) (HPC) 96 % of control | endpoint: mean survival time, dose: 12.5 mg/kg/injection, schedule: Q04DX003 (ip), vehicle: saline with Tween-80 91 % of control | endpoint: mean survival time, dose: 25.0 mg/kg/injection, schedule: Q04DX003 (ip), vehicle: saline with Tween-80 97 % of control

O=c1[nH]cc(N=Cc2ccccc2O)c(=O)[nH]1.[Cl][Pt]
inactive: endpoint: mean survival time, dose: 3.13 mg/kg/injection, schedule: Q04DX003 (ip), vehicle: water 96 % of control | endpoint: mean survival time, dose: 6.25 mg/kg/injection, schedule: Q04DX003 (ip), vehicle: water 96 % of control | endpoint: mean survival time, dose: 12.5 mg/kg/injection, schedule: Q04DX003 (ip), vehicle: water 97 % of control | endpoint: mean survival time, dose: 25.0 mg/kg/injection, schedule: Q04DX003 (ip), vehicle: water 108 % of control | endpoint: mean survival time, dose: 50.0 mg/kg/injection, schedule: Q04DX003 (ip), vehicle: water 102 % of control | endpoint: mean survival time, dose: 100.0 mg/kg/injection, schedule: Q04DX003 (ip), vehicle: water 100 % of control | endpoint: mean survival time, dose: 200.0 mg/kg/injection, schedule: Q04DX003 (ip), vehicle: water 108 % of control

Nc1cc(C(F)(F)F)ccc1/C(=C/c1ccc(Cl)cc1)C(=O)O
inactive: endpoint: mean survival time, dose: 75.0 mg/kg/injection, schedule: Q04DX003 (ip), vehicle: saline 103 % of control | endpoint: mean survival time, dose: 150.0 mg/kg/injection, schedule: Q04DX003 (ip), vehicle: saline 102 % of control

O=C(O)c1ccc(C(=O)O)s1.[NH-]C1CCCCC1[NH-].[Pt+2]
inactive: endpoint: mean survival time, dose: 2.5 mg/kg/injection, schedule: Q04DX003 (ip), vehicle: dextrose 113 % of control | endpoint: mean survival time, dose: 5.0 mg/kg/injection, schedule: Q04DX003 (ip), vehicle: dextrose 118 % of control | endpoint: mean survival time, dose: 20.0 mg/kg/injection, schedule: Q04DX003 (ip), vehicle: dextrose 113 % of control
